# Tests used:
# [1] = test system: MECP2-KO cortical organoids; assay: Synapsin1+ puncta quantitation in cortical organoids; type: cell-based, human; conditions: 1 μM for one month, vs untreated
# Description: Immunofluorescence of cells and cortical organoids. Immunofluorescence was performed as described in Chailangkam et al. Cells fixed in 4% PFA were PBS-washed and permeabilized/blocked (0.1% Triton X-100, 2% BSA). Cortical organoids fixed in 4% PFA were transferred to 30% sucrose, sunken, embedded in O.C.T. (Sakura, Tokyo, Japan), and cryostat-sectioned. Air-dried slides with organoid sections were permeabilized/blocked (0.1% Triton X-100, 3% FBS, PBS). […] Slides or coverslips were mounted with ProLong Gold anti-fade mountant (Life Technologies) and analyzed with a Z1 Axio Observer Apotome fluorescence microscope (Zeiss, Oberkochen, Germany).
# Nefiracetam and PHA 543613 rescue network activity in MECP2-KO cortical organoids. The therapeutic efficacy of Nefiracetam and PHA 543613 was evaluated with cortical organoids, a complex, three-dimensional human neurodevelopmental model that closely recapitulates aspects of human fetal neurodevelopment. […]
# [2] = molecular target: α7 subtype of neural nicotinic acetylcholine receptors (Homo sapiens, UniProt P36544); conditions: cited from earlier work
# α7 subtype of neural nicotinic acetylcholine receptors, sequence (P36544 23-502): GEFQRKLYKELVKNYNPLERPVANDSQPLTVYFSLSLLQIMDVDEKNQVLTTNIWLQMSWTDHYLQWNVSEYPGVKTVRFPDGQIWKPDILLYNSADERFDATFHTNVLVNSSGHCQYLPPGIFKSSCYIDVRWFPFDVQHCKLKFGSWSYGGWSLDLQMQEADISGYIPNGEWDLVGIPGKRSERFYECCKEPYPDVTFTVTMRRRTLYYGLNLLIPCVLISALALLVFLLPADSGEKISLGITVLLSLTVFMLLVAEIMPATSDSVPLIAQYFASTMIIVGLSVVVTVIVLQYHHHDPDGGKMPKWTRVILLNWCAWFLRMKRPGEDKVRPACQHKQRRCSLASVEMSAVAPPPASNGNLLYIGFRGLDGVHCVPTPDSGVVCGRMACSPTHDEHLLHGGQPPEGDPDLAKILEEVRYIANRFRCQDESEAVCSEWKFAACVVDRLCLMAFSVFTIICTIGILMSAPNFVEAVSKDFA
Compound,synaptic puncta (Synapsin1+) [1],agonist activity at α7 nAChR [2]
"Cc1cccc(C)c1NC(=O)CN1CCCC1=O [Nefiracetam, nefiracetam]",increase,–
"O=C(N[C@H]1CN2CCC1CC2)c1cc2ccoc2cn1 [PHA 543613, N-[(3R)-1-azabicyclo[2.2.2]oct-3-yl]furo[2,3-c]pyridine-5-carboxamide]",–,potent and selective agonist
